Structures are written as SMILES. Where “and” joins values, the source holds several entries; their conditions need not be identical. Equal values may be shown once.

These results are taken from patent US7662968B2, “Process for preparing lansoprazole” (KRKA tovarna zdravil, d.d.., priority 2005, dated 2010).

Data set [1] in a line: BET-surface area determination (nitrogen desorption, BET FlowSorb II 2300). It is filed as physicochemical. The note with it: 30 vol. % nitrogen / 70 vol. % helium at 77 K. Here is the method: Unless otherwise noted, the BET-surface areas of the produced lansoprazole are determined by calculation from desorption data of nitrogen obtained on a BET FlowSorb II 2300 (Micromeritics Instrument Corp., USA) using a mixture of 30 vol. % nitrogen and 70 vol. % helium at 77 K.

A short description of data set [2]: Release of lansoprazole from pellets (dissolution, Ph. Eur. Paddle method). Format: physicochemical. The note with it: paddle 100 rpm, after one hour in artificial gastric juice pH 1.2, FIG. 1; for release of lansoprazole from pellets (comparison in words): phosphate buffer pH 6.8, 37° C. Here is the method:
The release of lansoprazole was spectrophotometrically determined using Hewlett Packard 8452 A Diode array spectrophotometer and automatic sampling system Multicell Transport System. Dissolution profiles were obtained at 37° C. using 900 ml phosphate buffer solution having pH 6.8 and Ph. Eur. Paddle method (100 rpm). Before analysis, the pellet samples were treated with artificial gastric juice (500 ml) having a pH of 1.2 for one hour, washed and quantitatively transferred into the phosphate buffer. […] Preferably more than 80%, more preferably more than 85% and most preferred more than 90% of lansoprazole are released from the compositions according to the invention within 30 minutes.
If a lansoprazole prepared according to example 4 having a BET-surface area of 4.76 m^2/g is used, more than 90% of the drug is released within the first 30 minutes (upper curve).

The mark [3] stands for this setting: lansoprazole form A as obtained after purification and drying.

As for `Cc1c(OCC(F)(F)F)ccnc1C[S+]([O-])c1nc2ccccc2[nH]1` (centres unmarked) [Example 3, 2-[[[3-methyl-4-(2,2,2-trifluoroethoxy)-2-pyridinyl]methyl]sulfinyl]-1H-benzimidazole], the BET-surface area in data set [1] (setting [3]) was found to be 0.25 m^2/g; in data set [1] (lansoprazole form A further milled), 0.87 m^2/g. Moreover, the “release of lansoprazole from pellets (comparison in words)” value (shortened to “release of lansoprazole from pellets”) in data set [2] is “clearly smaller release”.

For the compound `Cc1c(OCC(F)(F)F)ccnc1C[S+]([O-])c1nc2ccccc2[nH]1` (centres unmarked) [Example 4, 2-[[[3-methyl-4-(2,2,2-trifluoroethoxy)-2-pyridinyl]methyl]sulfinyl]-1H-benzimidazole], the BET-surface area in data set [1] (setting [3]) is 4.67 m^2/g and 4.76 m^2/g. In addition, the drug released entry in data set [2] (pellets prepared according to Example 8, within the first 30 minutes, 900 ml phosphate buffer pH 6.8, 37° C.) is reported as “more than 90%”. Further, in data set [2] (listed as lansoprazole having a BET-surface area of 4.67 m^2/g), the “release of lansoprazole from pellets” value was “clearly faster”.

Regarding `Cc1c(OCC(F)(F)F)ccnc1C[S+]([O-])c1nc2ccccc2[nH]1` (centres unmarked) [Example 5, 2-[[[3-methyl-4-(2,2,2-trifluoroethoxy)-2-pyridinyl]methyl]sulfinyl]-1H-benzimidazole], the BET-surface area in data set [1] (setting [3]) was 1.0 m^2/g and 1.00 m^2/g. In data set [2], the “release of lansoprazole from pellets” value is on record as “clearly smaller release”.
